One assay deals with T1, BTK (Homo sapiens, UniProt Q06187).
T1 construct: purchased Cama
As to the kind of experiment: Assay to determine activity against BTK. It counts as biochemical. The following applies: 1 mM ATP, 2 nM BTK, 90 minutes at room temperature. The method, then:
Solutions of compounds (test or control) in DMSO were prepared at the desired concentrations, and serially diluted to 11 concentrations by 3-fold dilution in 384pp-plate using TECAN EVO200. 20 nL of stock were transferred to 384 plate using Echo550. DMSO was used as vehicle control.
(BTK was obtained from Cama; FLPeptide2 was obtained from PerkinElmer and Ibrutinib was obtained from Selleck.) 5 μL of ATP solution were added to each well, followed by addition of 15 μL of BTK solution to initiate the reaction. (Note the final volume of each well was 20 μL containing MgCl2 (10 mM), Brij-35 (0.01%), DTT (2 mM), BSA (0.05%), EGTA (1 mM), HEPE (pH7.5) (50 mM), FLPeptide (1.5 uM), ATP (1 mM) and BTK (2 nM).
The plates were incubated at room temperature for 90 minutes and then stopping buffer added (75 μL, containing 0.5 M EDTA) to terminate the reaction. Samples from each well were analyzed using EZ reader. The % remaining activity was calculated using read conversion ratio (CR) according to the equation: […]
XLFit (equation 201) was used to calculate IC50's by floating both bottom and top.

The test system of another assay is BTK in RAMOS B cells. The experiment in a line: Assay to determine BTK activity in RAMOS B cells (anti-IgM, FLIPR Calcium 6). It counts as cell-based. The following applies: anti-IgM EC80, calcium readout. As for the experimental part:
On the day before assay, Ramos B cells were plated in plating medium (RPMI1640 medium containing 1% FBS and 1× pencillin-streptomycin). On the day of the assay, 2× dye solution was prepared following the manual of the FLIRP Calcium 6 Assay Kit: Dilute the dye with assay buffer (20 mM HEPES in IX HBSS, pH7.4); Add probenecid to the final concentration of 5 mM; vortex vigorously for 1-2 minutes. Cells were collected by centrifuging, and the pellet was re-suspended in plating medium. After counting, cells were re-suspended at a density of 3×10^6/ml in plating medium. Equal volume of 2× dye solution was added to the cell suspension. Cells were then plated at 20 μl/well into a 384-well poly-D-lysine coated plate. Plate was centrifuged at 1000 rpm for 3 minutes and then incubated at 37° C. for 2 hours followed by an additional 15-minute incubation at 25° C. Compounds were prepared at 3× concentration in dilution buffer (20 mM HEPES and 0.1% BSA in 1×HBSS, pH 7.4). Serially diluted compound was transferred from source plate to a 384-well compound plate by using an Echo 550 (Labcyte). 20 μl/well compound dilution buffer was added to the compound plate and mixed on plate shaker for 2 mins. 4× EC80 of Anti-IgM (Jackson ImmunoResearch) was prepared in dilution buffer and 20 μl/well was added to a new 384-well compound plate. After 60 mins of incubation at 25° C. in the dark; cell plate, compound plate containing 4×EC80 of anti-IgM and FLIPR tips were placed into FLIPR (Molecular Devices). 10 ul/well of 4×EC80 anti-IgM was transferred to the cell plate by FLIPR. Plates were read for 160 sec with 1 sec interval.

T1 sequence (Q06187 whole entry): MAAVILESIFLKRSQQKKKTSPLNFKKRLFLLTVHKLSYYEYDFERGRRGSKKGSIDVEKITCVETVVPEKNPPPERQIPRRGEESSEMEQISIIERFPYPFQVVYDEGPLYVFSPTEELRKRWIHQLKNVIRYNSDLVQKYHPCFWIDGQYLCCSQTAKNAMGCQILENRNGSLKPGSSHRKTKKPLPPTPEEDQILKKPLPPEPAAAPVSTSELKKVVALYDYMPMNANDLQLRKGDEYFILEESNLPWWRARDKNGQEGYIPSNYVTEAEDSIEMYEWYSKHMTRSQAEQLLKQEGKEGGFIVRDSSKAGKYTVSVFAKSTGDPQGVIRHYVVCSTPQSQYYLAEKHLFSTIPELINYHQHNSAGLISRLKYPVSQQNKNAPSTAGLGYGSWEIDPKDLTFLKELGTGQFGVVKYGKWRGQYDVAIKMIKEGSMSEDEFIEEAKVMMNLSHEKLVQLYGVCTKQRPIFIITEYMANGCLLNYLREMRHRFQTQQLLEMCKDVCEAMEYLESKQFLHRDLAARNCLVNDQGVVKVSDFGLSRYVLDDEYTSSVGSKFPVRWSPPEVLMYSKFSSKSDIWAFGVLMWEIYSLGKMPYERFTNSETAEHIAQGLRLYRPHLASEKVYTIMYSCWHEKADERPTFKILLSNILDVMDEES

Turning to `C=CC(=O)N1CCc2c(cccc2-c2ncc(C(N)=O)c3[nH]c4c(c23)CCCC4)C1` [Compound 3-1, 1-(2-acryloyl-1,2,3,4-tetrahydroisoquinolin-5-yl)-6,7,8,9-tetrahydro-5H-pyrido[4,3-b]indole-4-carboxamide], the IC50 was below 10 nM against BTK and below 10 nM in the assay with BTK in RAMOS B cells (Homo sapiens, Ramos).
Regarding `C=CC(=O)N1CCc2c(cccc2-c2c(F)cc(C(N)=O)c3[nH]c4c(c23)CC2(CCC2)CC4)C1` [Compound 7-13, 5-(2-acryloyl-1,2,3,4-tetrahydroisoquinolin-5-yl)-6-fluoro-1,2,4,9-tetrahydrospiro[carbazole-3,1′-cyclobutane]-8-carboxamide], the IC50 was 10 to 100 nM against BTK and at least 100 nM with BTK in RAMOS B cells (Homo sapiens, Ramos).
The matching figures for `C=CC(=O)N1CCc2c(cccc2-c2c(C)nc(C(N)=O)c3[nH]c4c(c23)CC2(CC4)CC2)C1` [Compound 7-26, 4′-(2-acryloyl-1,2,3,4-tetrahydroisoquinolin-5-yl)-3′-methyl-5′,7′,8′,9′-tetrahydrospiro[cyclopropane-1,6′-pyrido[3,4-b]indole]-1′-carboxamide]: at least 100 nM and at least 100 nM.
The matching figures for `C=CC(=O)N1CCC=C(c2cnc(C(N)=O)c3[nH]c4c(c23)CCCC4)C1` [Compound 2-2]: 10 to 100 nM and 10 to 100 nM.
The matching figures for `CC#CC(=O)N[C@H]1C[C@H](O)CN(c2c(F)cc(C(N)=O)c3[nH]c4c(c23)CCCCC4)C1` [Compound 4-3, 1-((3S,5S)-3-(but-2-ynamido)-5-hydroxypiperidin-1-yl)-2-fluoro-5,6,7,8,9,10-hexahydrocyclohepta[b]indole-4-carboxamide]: 10 to 100 nM and 10 to 100 nM.
In the case of `CC#CC(=O)N[C@@H]1C=C(c2c(F)cc(C(N)=O)c3[nH]c4c(c23)CCCCC4)CCC1` [Compound 5-9, 1-[(3S)-3-(but-2-ynoylamino)cyclohexen-1-yl]-2-fluoro-5,6,7,8,9,10-hexahydrocyclohepta[b]indole-4-carboxamide], the IC50 on BTK was 10 to 100 nM; with BTK in RAMOS B cells (Homo sapiens, Ramos), 10 to 100 nM.
As for `C=CC(=O)N1CCC=C(c2ccc(C(N)=O)c3[nH]c4c(c23)CC2(CC4)CC2)C1` [Compound 7-1, 4-(1-prop-2-enoyl-3,6-dihydro-2H-pyridin-5-yl)spiro[5,7,8,9-tetrahydro-carbazole-6,1′-cyclopropane]-1-carboxamide], the IC50 at BTK was in the range of 10 to 100 nM; in the assay with BTK in RAMOS B cells (Homo sapiens, Ramos) it was 10 to 100 nM.
Regarding `C=CC(=O)N1CC[C@@H]2CCN(c3c(F)cc(C(N)=O)c4[nH]c5c(c34)CCCCC5)C[C@@H]21` [Compound 4-2, 1-((3aS,7aR)-1-acryloyloctahydro-6H-pyrrolo[2,3-c]pyridin-6-yl)-2-fluoro-5,6,7,8,9,10-hexahydrocyclohepta[b]indole-4-carboxamide], the IC50 was at least 100 nM against BTK and at least 100 nM in the assay with BTK in RAMOS B cells (Homo sapiens, Ramos).
For `CC#CC(=O)N[C@H]1CCCN(c2c(F)cc(C(N)=O)c3[nH]c4c(c23)CCCCC4)C1` [Compound 4-1, (S)-1-(3-(but-2-ynamido)piperidin-1-yl)-2-fluoro-5,6,7,8,9,10-hexahydrocyclohepta[b]indole-4-carboxamide], the IC50 fell in the range of 10 to 100 nM on BTK and 10 to 100 nM in the assay on BTK in RAMOS B cells (Homo sapiens, Ramos).
`CC#CC(=O)N[C@H]1CCCN(c2c(F)cc(C(N)=O)c3[nH]c4c(c23)CCN(C)CC4)C1` [Compound 9-5, (S)-10-(3-(but-2-ynamido)piperidin-1-yl)-9-fluoro-3-methyl-1,2,3,4,5,6-hexahydroazepino[4,5-b]indole-7-carboxamide]: the IC50 on BTK was below 10 nM; in the assay with BTK in RAMOS B cells (Homo sapiens, Ramos) it was 10 to 100 nM.
As for `C=CC(=O)N1CCc2c(cccc2-c2c(F)cc(C(N)=O)c3[nH]c4c(c23)CCCCC4)C1` (single isomer, unassigned) [Compound 5-2, 2-fluoro-1-[2-(prop-2-enoyl)-3,4-dihydro-1H-isoquinolin-5-yl]-5H,6H,7H,8H,9H,10H-cyclohepta[b]indole-4-carboxamide], the IC50 against BTK and in the assay on BTK in RAMOS B cells was at least 100 nM each time.
Take `C=CC(=O)N1CCC=C(c2ccc(C(N)=O)c3[nH]c4c(c23)CC2(CCCO2)CC4)C1` (centres unmarked) [Compound 7-6, 5-(1-acryloyl-1,2,5,6-tetrahydropyridin-3-yl)-1,2,4,4′,5′,9-hexahydro-3′H-spiro[carbazole-3,2′-furan]-8-carboxamide]: the IC50 on BTK is at least 100 nM; in the assay on BTK in RAMOS B cells (Homo sapiens, Ramos), at least 100 nM.
With `CC#CC(=O)N(C)[C@H]1CCCN(c2c(F)cc(C(N)=O)c3[nH]c4c(c23)CCC4)C1` [Compound 10-7, 8-[(3S)-3-[but-2-ynoyl(methyl)amino]-1-piperidyl]-7-fluoro-1,2,3,4-tetrahydrocyclopenta[b]indole-5-carboxamide], the IC50 against BTK was below 10 nM; in the assay on BTK in RAMOS B cells (Homo sapiens, Ramos) it was 10 to 100 nM.
In the case of `C=CC(=O)N1CCCC(c2c(F)cc(C(N)=O)c3[nH]c4c(c23)CCCCC4)C1` (single isomer, unassigned) [Compound 5-7], the IC50 at BTK and in the assay on BTK in RAMOS B cells was at least 100 nM throughout.
Consider `C=CC(=O)N1CCc2c(cccc2-c2c(F)cc(C(N)=O)c3[nH]c4c(c23)CC2(CCCC2)CC4)C1` [Compound 7-14, 5-(2-acryloyl-1,2,3,4-tetrahydroisoquinolin-5-yl)-6-fluoro-1,2,4,9-tetrahydrospiro[carbazole-3,1′-cyclopentane]-8-carboxamide], for which the IC50 against BTK is at least 100 nM; in the assay with BTK in RAMOS B cells (Homo sapiens, Ramos) it was at least 100 nM.
With `C=CC(=O)N1CCc2c(cccc2-c2c(F)cc(C(N)=O)c3[nH]c4c(c23)CC2(CC4)CC2)C1` [Compound 7-25, 5-(2-acryloyl-1,2,3,4-tetrahydroisoquinolin-5-yl)-6-fluoro-1,2,4,9-tetrahydrospiro[carbazole-3,1′-cyclopropane]-8-carboxamide], the IC50 on BTK and in the assay on BTK in RAMOS B cells was at least 100 nM each time.
As for `CC#CC(=O)N[C@H]1CCC=C(c2c(F)cc(C(N)=O)c3[nH]c4c(c23)CCC4)C1` [Compound 10-4, 8-[(5S)-5-(but-2-ynoylamino)cyclohexen-1-yl]-7-fluoro-1,2,3,4-tetrahydrocyclopenta[b]indole-5-carboxamide], the IC50 against BTK is below 10 nM; with BTK in RAMOS B cells (Homo sapiens, Ramos), below 10 nM.
Take `C=CC(=O)N1CCc2c(cccc2-c2cnc(C(N)=O)c3[nH]c4c(c23)CC(F)(F)CC4)C1` [Compound 7-29, 4-(2-acryloyl-1,2,3,4-tetrahydroisoquinolin-5-yl)-6,6-difluoro-6,7,8,9-tetrahydro-5H-pyrido[3,4-b]indole-1-carboxamide]: the IC50 against BTK is 10 to 100 nM; in the assay with BTK in RAMOS B cells (Homo sapiens, Ramos), 10 to 100 nM.
Turning to `C=CC(=O)N1CCc2c(cccc2-c2c(F)cc(C(N)=O)c3[nH]c4c(c23)CC2(CCCO2)CC4)C1` (centres unmarked) [Compound 7-16, 5-(2-acryloyl-1,2,3,4-tetrahydroisoquinolin-5-yl)-6-fluoro-1,2,4,4′,5′,9-hexahydro-3′H-spiro[carbazole-3,2′-furan]-8-carboxamide], the IC50 at BTK was below 10 nM; with BTK in RAMOS B cells it was 10 to 100 nM.
`C=CC(=O)N1CCc2c(cccc2-c2c(F)cc(C(N)=O)c3[nH]c4c(c23)CCN(C)CC4)C1` [Compound 9-6, 10-(2-acryloyl-1,2,3,4-tetrahydroisoquinolin-5-yl)-9-fluoro-3-methyl-1,2,3,4,5,6-hexahydroazepino[4,5-b]indole-7-carboxamide]: the IC50 is 10 to 100 nM at BTK and 10 to 100 nM in the assay on BTK in RAMOS B cells (Homo sapiens, Ramos).
Turning to `C=CC(=O)N1CCC=C(c2ccc(C(N)=O)c3[nH]c4c(c23)CC2(CCC2)CC4)C1` [Compound 7-3, 5-(1-acryloyl-1,2,5,6-tetrahydropyridin-3-yl)-1,2,4,9-tetrahydrospiro[carbazole-3,1′-cyclobutane]-8-carboxamide], the IC50 on BTK is at least 100 nM; in the assay with BTK in RAMOS B cells (Homo sapiens, Ramos) it was at least 100 nM.
With `CC#CC(=O)N[C@@H]1C=C(c2c(F)cc(C(N)=O)c3[nH]c4c(c23)CCC4)CCC1` [Compound 10-3, 8-[(3 S)-3-(but-2-ynoylamino)cyclohexen-1-yl]-7-fluoro-1,2,3,4-tetrahydrocyclopenta[b]indole-5-carboxamide], the IC50 is below 10 nM at BTK and below 10 nM with BTK in RAMOS B cells (Homo sapiens, Ramos).

By IC50 is commonly meant the concentration needed to halve the response being measured.

(Values after US20220009920A1 (GB005, Inc., priority 2020, published 2022).)
